Results from patent publication US20250268901A1, “CRYSTAL FORM OF AZETIDINE-SUBSTITUTED COMPOUND” (MEDSHINE DISCOVERY INC., priority 2020, published 2025).
Each block holds one molecule with its values, some of them ahead of it.

Tests used:
KRAS G12C = details: cited from earlier work
[1] = tested on: pancreatic cancer MIA-Paca2 cell; details: subcutaneous xenograft tumor model of pancreatic cancer MIA-Paca2 cell; cited from earlier work
MIA-PA-CA-2 cells = assay: Cell proliferation assay (CellTiter-Glo), MIA-PA-CA-2; assay type: cell-based, Human
Description: (§1) The effect of the compound on cell proliferation was examined on NC-H358, MA-PA-CA-2, A375, SW1463, and A427 cells.
Medium for MIA-PA-CA-2 cell line: 86.5% DMEM medium+10% fetal bovine serum+2.5% horse serum+1% P/S
(§2) • 1. The medium and pancreatin used in the process of cell passaging were pre-heated in a water bath at 37° C. • 2. The cells were rinsed with pancreatin and digested with pancreatin until the cells were detached. A culture solution was added, and the cells and the culture solution were well mixed to stop the digestion. • 3. The cells were pipetted into a 15 mL centrifuge tube, 0.01 mL of cell suspension was pipetted onto a count plate, and cells were counted. • 4. […]
(§3) • 1. On the day of compound treatment, the day-0 test plate was removed from the incubator, 50 µL of Cell Titer Glo was added, and the plate was centrifuged at 1000 rpm for 10 s, shaken at room temperature for 10 min, then centrifuged again at 1000 rpm for 10 s, and read on Envision. • 2. […] To each well of the 96-well plates, 50 µL of Cell Titer-Glo was added, and the plates were centrifuged at 1000 rpm for 10 s, shaken at room temperature for 10 min, then centrifuged again at 1000 rpm for 10 s, and read on Envision. • 3. […]

SW1463 cells = assay: Cell proliferation assay (CellTiter-Glo), SW1463; assay type: cell-based, Human
Description: as §1
Medium for SW1463 cell line: 89% Leibovit2 sL-15 medium+10% fetal bovine serum+1% P/S
as §2, §3

A375 cells = assay: Cell proliferation assay (CellTiter-Glo), A375; assay type: cell-based, Human
Description: as §1
Medium for A375 cell line: 89% DMEM medium+10% fetal bovine serum+1% P/S
(§4) • 1. The medium and pancreatin used in the process of cell passaging were pre-heated in a water bath at 37° C. • 2. The cells were rinsed with pancreatin and digested with pancreatin until the cells were detached. A culture solution was added, and the cells and the culture solution were well mixed to stop the digestion. • 3. The cells were pipetted into a 15 mL centrifuge tube, 0.01 mL of cell suspension was pipetted onto a count plate, and cells were counted. • 4. According to the cell densities shown in the table below, a proper amount of each type of cells was transferred to a 15 mL centrifuge tube and made up to a volume of 9 mL with a corresponding cell culture solution.
• 5. […]
as §3

NCI-H358 cells = assay: Cell proliferation assay (CellTiter-Glo), NCI-H358; assay type: cell-based, Human
Description: as §1
Medium for H358 cell line: 89% RPMI1640 medium+10% fetal bovine serum+1% P/S
as §4
• 5. […]
as §3

A427 cells = assay: Cell proliferation assay (CellTiter-Glo), A427; assay type: cell-based, Human
Description: as §1
Medium for A427 cell line: 89% EMEM medium+10% fetal bovine serum+1% P/S
as §4
• 5. […]
as §3

[2] = Pressure stability of crystal form (hydraulic press, XRPD); assay type: physicochemical
Description: The Hydraulic press experiment is carried out on an SYP-5BS manual press, and the pressure put on to the sample is about 350 MPa.
Crystal form C of the compound of formula (I) was added to a circular mold (6 mm in diameter) and pressurized to about 350 MPa. A small piece of the sheet-like sample was directly taken for XRPD analysis.

[3] = Solid stability of crystal form (XRPD and HPLC); assay type: physicochemical
Description: The purity and solubility of a sample are determined through a high performance liquid chromatograph Agilent 1260 HPLC.
To evaluate the solid stability of crystal form C of the compound of formula (I), crystal form C of the compound of formula (I) was subjected to stability testing under affecting factor conditions (high temperature, high humidity, and light), 60° C./75% RH conditions, and 40° C./75% RH conditions. Crystal form C was placed under a high-temperature condition (60° C., closed) and a high-humidity condition (92.5% RH, wrapped in a sealing film, with 5 small holes made) for 1 week and 2 weeks, placed in a closed container in visible light and ultraviolet light (a light-shielding control group was set at the same time, and the sample was wrapped in tinfoil) according to the ICH conditions (visible light illumination reached 1.2E+06 Lux hrs, and ultraviolet light illumination reached 200 W·hrs/m2), and meanwhile placed under 60° C./75% RH conditions (wrapped in a sealing film, with 5 small holes made) for 1 month and 2 months and under 40° C./75% RH conditions (wrapped in a sealing film, with 5 small holes made) for 1 month, 2 months, and 3 months. All the stability samples were tested for crystal form change by XRPD analysis and were analyzed by HPLC.

[4] = Light-shielding control group, simultaneously with visible + ultraviolet
[5] = Visible + ultraviolet (ICH conditions), 1.2E+06 Lux · hrs, 300 W · hrs/m^2

SMILES: C=CC(=O)N1CCN(c2ncnc3c(F)c(-c4c(O)cccc4F)c(Cl)cc23)CC1 [ARS-1620]
cell antiproliferative activity at the cellular level (KRAS G12C): nM level
tumor growth inhibition [1]: can effectively inhibit tumor growth

IC50 (MIA-PA-CA-2 cells; Homo sapiens, MIA PaCa-2, MIA-PA-CA-2, 72 h incubation, CellTiter-Glo): 34 ± 7.03 nM
IC50 (SW1463 cells; Homo sapiens, SW1463, 144 h incubation, CellTiter-Glo): 112 ± 32.7 nM
IC50 (A375 cells; Homo sapiens, A-375, A375, 72 h incubation, CellTiter-Glo): 4640 ± 89.8 nM
IC50 (NCI-H358 cells; Homo sapiens, NCI-H358, 120 h incubation, CellTiter-Glo): 13 ± 1.85 nM
SMILES: C=CC(=O)N1CCN(c2nc(N3CC(N(CC)CC)C3)nc3c(=O)n(-c4c(N)c(Cl)cc(Cl)c4F)c(C(F)(F)F)cc23)CC1 [Compound of formula (I)]
inhibitory activity against proliferation (MIA-PA-CA-2 cells; pancreatic cancer cell MIA-PA-CA-2): good inhibitory activity
inhibitory activity against proliferation (SW1463 cells; human rectal adenocarcinoma cell SW1463): good inhibitory activity
activity on cell (A375 cells; melanoma cell A375): weak activity
inhibitory activity against proliferation (NCI-H358 cells; human non-small cell lung cancer cell NCI-H358): good inhibitory activity
IC50 (A427 cells; Homo sapiens, A-427, A427, 72 h incubation, CellTiter-Glo): > 6980 nM
activity on cell (A427 cells; human lung cancer cell A427): weak activity

pressure stability (conclusion) ([2]; about 350 MPa): good pressure stability
crystal form change after being pressed (XRPD) ([2]; pressure of about 350 MPa): did not change
Crystal form change ([3]; 40° C./75% RH, 1 month): Unchanged
Purity (%) ([3]; 40° C./75% RH, 1 month): 98.00%
Relative purity ([3]; 40° C./75% RH, 1 month): 100.2%
Crystal form change ([3]; 40° C./75% RH, 2 months): Unchanged
Purity (%) ([3]; 40° C./75% RH, 2 months): 97.92%
Relative purity ([3]; 40° C./75% RH, 2 months): 100.1%
Crystal form change ([3]; 40° C./75% RH, 3 months): Unchanged
Purity (%) ([3]; 40° C./75% RH, 3 months): 98.02%
Relative purity ([3]; 40° C./75% RH, 3 months): 100.2%
Crystal form change ([3]; 60° C., closed, 1 week): Unchanged
Purity (%) ([3]; 60° C., closed, 1 week): 97.99%
Relative purity ([3]; 60° C., closed, 1 week): 100.1%
Crystal form change ([3]; 60° C., closed, 2 weeks): Unchanged
Purity (%) ([3]; 60° C., closed, 2 weeks): 97.98%
Relative purity ([3]; 60° C., closed, 2 weeks): 100.1%
Crystal form change ([3]; 60° C./75% RH, 1 month): Unchanged
Purity (%) ([3]; 60° C./75% RH, 1 month): 97.92%
Relative purity ([3]; 60° C./75% RH, 1 month): 100.1%
Crystal form change ([3]; 60° C./75% RH, 2 months): Unchanged
Purity (%) ([3]; 60° C./75% RH, 2 months): 97.98%
Relative purity ([3]; 60° C./75% RH, 2 months): 100.1%
Crystal form change ([3]; 92.5% RH, 1 week): Unchanged
Purity (%) ([3]; 92.5% RH, 1 week): 98.03%
Relative purity ([3]; 92.5% RH, 1 week): 100.2%
Crystal form change ([3]; 92.5% RH, 2 weeks): Unchanged
Purity (%) ([3]; 92.5% RH, 2 weeks): 98.00%
Relative purity ([3]; 92.5% RH, 2 weeks): 100.2%
Crystal form change [3, 4]: Unchanged
Purity (%) [3, 4]: 98.00%
Relative purity [3, 4]: 100.2%
Crystal form change ([3]; Starting sample): Unchanged
Purity (%) ([3]; Starting sample): 97.85%
Crystal form change [3, 5]: Unchanged
Purity (%) [3, 5]: 96.62%
Relative purity [3, 5]: 98.7%
solid stability (conclusion) ([3]; high temperature, high humidity, light, 60° C./75% RH, 40° C./75% RH): good solid stability
SMILES: C=CC(=O)N1CCN(c2nc(N3CC(N(CC)CC)C3)nc3c(=O)n(-c4c(N)c(Cl)cc(Cl)c4F)c(C(F)(F)F)cc23)CC1 [crystal form C]
